Measurements reported in article PMC6151561, “Rapid Identification of Dipeptidyl Peptidase-IV (DPP-IV) Inhibitory Peptides from Ruditapes philippinarum Hydrolysate” (Molecules : A Journal of Synthetic Chemistry and Natural …, 2017).
No end group written: not given here.

Tests used:
DPP-IV enzyme = target: T1, DPP-IV enzyme (Sus scrofa, UniProt P22411); experiment: Lineweaver-Burk double-reciprocal plot, mode of DPP-IV inhibition; type: biochemical, porcine; conditions: Figure 7
T1 construct: purchased Sigma Chemical Co. (St. Louis, MO, USA)
Experimental: Figure 7 Lineweaver—Burk double-reciprocal plot for DPP-IV activity in the absence and presence of four peptides at different inhibitory concentrations. […] (0, 150, and 300 μM); (C) peptide LAPSTM (0, 150, and 300 μM); (D) peptide […] (0, 250, and 500 μM); and (E) peptide FLMESH (0, 400, and 800 μM).
DPP-IV inhibitory activity was measured as previously described by Zhang with minor modifications. Briefly, a 25 μL sample (diluted in 100 mM Tris-HCl buffer at pH 8.0) was mixed with 25 μL Gly-Pro-p-nitroanilide (1.6 mM) and pre-incubated at 37 °C for 10 min. Subsequently, 50 μL of DPP-IV (8 U/L) was added and the mixture was incubated at 37 °C for 1 h. The reaction was terminated by adding 100 μL of 1 M sodium acetate buffer at pH 4.0. The absorbance of each reaction was measured at 405 nm. […] The percent DPP-IV inhibition was calculated according to the following equation: DPP-IV inhibition(%)=[1−Asample/Ablank]×100%

porcine DPP-IV = target: T2, porcine DPP-IV (Sus scrofa, UniProt P22411); experiment: DPP-IV inhibitory activity assay (Gly-Pro-p-nitroanilide substrate, absorbance 405 nm); type: biochemical; conditions: chemically synthesized peptides; diprotin A positive control
T2 construct: purchased Sigma Chemical Co. (St. Louis, MO, USA)
Text: Papain (from papaya, 8 × 10^5 units/g of protein), trypsin (from porcine pancreas, 2.5 × 10^5 units/g of protein), pepsin (from porcine gastric mucosa, 1 × 10^4 units/g of protein), flavourzyme (from […], 2 × 10^4 units/g of protein), and alcalase (from Bacillus licheniformis, 2 × 10^5 units/g of protein) were purchased from […] Biological Tech., Ltd. (Nanjing, China). […] (St. Louis, MO, USA). Mass spectrometry (MS)-grade water, acetonitrile (ACN), and trifluoroacetic acid (TFA) were purchased from Tedia Company Inc. (Fairfield, CT, USA). All other reagents were obtained from Sigma. All reagents were of analytical grade. DPP-IV inhibitory activity was measured as previously described by Zhang with minor modifications. Briefly, a 25 μL sample (diluted in 100 mM Tris-HCl buffer at pH 8.0) was mixed with 25 μL Gly-Pro-p-nitroanilide (1.6 mM) and pre-incubated at 37 °C for 10 min. […] The reaction was terminated by adding 100 μL of 1 M sodium acetate buffer at pH 4.0. The absorbance of each reaction was measured at 405 nm. Diprotin A ([…]) was used as a reference inhibitor. The percent DPP-IV inhibition was calculated according to the following equation: […] The DPP-IV inhibitory activity of these chemically synthesized peptides was determined as described in Section 3.3.

DPP-IV [1] = tested on: DPP-IV; design: method as in PMID 26758401; conditions: heptapeptide derived from silver carp actin; cited from earlier work
DPP-IV [2] = tested on: DPP-IV; design: method as in PMID 25577052; conditions: read-out: DPP-IV inhibitory activity IC50; cited from earlier work

T1 sequence (P22411 whole entry): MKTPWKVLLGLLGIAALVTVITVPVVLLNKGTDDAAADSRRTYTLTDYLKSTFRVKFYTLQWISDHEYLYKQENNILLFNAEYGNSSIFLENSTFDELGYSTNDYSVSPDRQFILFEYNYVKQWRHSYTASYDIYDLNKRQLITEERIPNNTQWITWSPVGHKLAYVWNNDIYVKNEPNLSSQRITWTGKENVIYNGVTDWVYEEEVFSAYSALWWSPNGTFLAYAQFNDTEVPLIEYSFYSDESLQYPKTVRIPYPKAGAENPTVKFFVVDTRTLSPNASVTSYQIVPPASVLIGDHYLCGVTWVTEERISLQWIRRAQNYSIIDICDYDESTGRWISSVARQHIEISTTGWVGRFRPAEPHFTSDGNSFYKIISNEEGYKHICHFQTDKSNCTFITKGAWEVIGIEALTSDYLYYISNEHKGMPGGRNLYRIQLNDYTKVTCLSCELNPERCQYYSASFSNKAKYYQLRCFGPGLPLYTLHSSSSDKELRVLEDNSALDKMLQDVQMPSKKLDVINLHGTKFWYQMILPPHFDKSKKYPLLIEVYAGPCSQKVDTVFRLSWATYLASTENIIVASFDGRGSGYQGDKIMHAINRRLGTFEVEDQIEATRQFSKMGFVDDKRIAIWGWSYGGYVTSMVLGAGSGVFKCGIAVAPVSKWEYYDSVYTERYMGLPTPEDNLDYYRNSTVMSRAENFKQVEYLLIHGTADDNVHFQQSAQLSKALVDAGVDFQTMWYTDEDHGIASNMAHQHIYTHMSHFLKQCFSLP
T2 sequence (P22411 whole entry): as above

Compound | mode of inhibition of DPP-IV enzyme (DPP-IV enzyme) | IC50 (porcine DPP-IV) [µM] | DPP-IV inhibitory effect (DPP-IV [1]) | IC50 (DPP-IV [2]) [µM]
CC[C@H](C)[C@H](N)C(=O)N1CCC[C@H]1C(=O)N[C@H](C(=O)O)[C@@H](C)CC [diprotin A, Ile-Pro-Ile, reference compound] | competitive inhibitor |  |  | 
LAPSTM [LAPSTM] |  | 141 |  | 
FAGDDAPR [FAGDDAPR] | competitive/non-competitive mixed-type inhibition mode | 169 |  | 
FAGDDAPRA [FAGDDAPRA] | competitive/non-competitive mixed-type inhibition mode | 393 |  | 
ALAPSTM [heptapeptide derived from silver carp actin, from the literature] |  |  | weak DPP-IV inhibitory effect | 
FLMESH [FLMESH] | competitive/non-competitive mixed-type inhibition mode | > 500 |  | 
Leu-Ala |  |  |  | 91
